Measured values: patent US11420947B2, “(S)-n-hydroxy-2-(2-(4-methoxyphenyl)butanamido)thiazole-5-carboxamide and pharmaceutically acceptable salts thereof” (TRANSLATIONAL DRUG DEVELOPMENT, LLC, priority 2018, dated 2022)
pIC50: −log10 of the molar value. Like-named read-outs stand apart in the source and are kept apart here.

Legend:
OVCAR-3 = test: CellTiter-Glo cell viability assay; assay type: cell-based, Human; settings: for pIC50: OVCAR-3, OVARIAN, Human Ovarian Carcinoma, 72 hours
Method: (§1) Cell viability in the presence of varying concentrations of the above listed compounds at different time points was used to assess cytotoxicity and the effect of the compounds on cell proliferation.
(§2) Cell viability was measured by the CellTiter-Glo® cell viability assay from Promega (Madison, Wis.). The CellTiter-Glo® Luminescent Cell Viability Assay is a homogeneous method to determine the number of viable cells in culture based on quantitation of the ATP present, which signals the presence of metabolically active cells. Following treatment, CellTiter-Glo® is added to treatment wells and incubated at 37° C. luminescence values were measured at using a Molecular Devices Spectramax microplate reader
(§3) Cells were grown to 70% confluency, trypsinized, counted, and seeded in 96 well flat-bottom plates at a final concentration of 2.5×10^3-5×10^3 cells/well (Day 0). Cells were allowed to incubate in growth media for 24 hours. Treatment with the test agents or standard agents began on Day 1 and continued for 72 hours. At the 72-hour timepoint, treatment containing media was removed. Viable cell numbers are quantified by the CellTiter-Glo® cell viability assay as described above. Results from these studies were used to calculate an IC50 value (concentration of drug that inhibits cell growth by 50 percent of control) for each compound.
(§4) For single agent and combination studies, data from each experiment was collected and expressed as % Cell Growth using the following calculation: % Cell Growth=(ftest/fvehicle)×100
(§5) Where test is the fluorescence of the tested sample, and fvehicle is the fluorescence of the vehicle in which the drug is dissolved. Dose response graphs and IC50 values were generated using Prism 6 software (GraphPad) using the following equation: Y=(Top-Bottom)/(1+10^((logIC^50^-X)-HillSlope))

OVCAR-8 = test: CellTiter-Glo cell viability assay; assay type: cell-based, Human; settings: for pIC50: OVCAR-8, OVARIAN, Human Ovarian Carcinoma, 72 hours
Method: as §1, §2, §3, §4, §5

COV434 = test: CellTiter-Glo cell viability assay; assay type: cell-based, Human; settings: for pIC50: COV434, OVARIAN, Human Ovarian Granulosa, 72 hours
Method: as §1, §2, §3, §4, §5

BIN-67 = test: CellTiter-Glo cell viability assay; assay type: cell-based, Human; settings: for pIC50: BIN-67, OVARIAN, Human Small Cell Carcinoma of the Ovary, 72 hours
Method: as §1, §2, §3, §4, §5

SKOV-3 = test: CellTiter-Glo cell viability assay; assay type: cell-based, Human; settings: for pIC50: SK-OV-3, SKOV-3, OVARIAN, Human Ovarian Carcinoma, 72 hours
Method: as §1, §2, §3, §4, §5

IGROV-1 = test: CellTiter-Glo cell viability assay; assay type: cell-based, Human; settings: for pIC50: IGROV-1, OVARIAN, Human Ovarian Adenocarcinoma, 72 hours
Method: as §1, §2, §3, §4, §5

A2780cp = test: CellTiter-Glo cell viability assay; assay type: cell-based, Human; settings: for pIC50: A2780C/P, A2780cp, OVARIAN, Platinum res-Human Ovarian, 72 hours
Method: as §1, §2, §3, §4, §5

A2780 = test: CellTiter-Glo cell viability assay; assay type: cell-based, Human; settings: for pIC50: A2780, OVARIAN, Human Ovarian, 72 hours
Method: as §1, §2, §3, §4, §5

SCCOHT-1 = test: CellTiter-Glo cell viability assay; assay type: cell-based, Human; settings: for pIC50: SCCOHT-1, OVARIAN, Human Small Cell Carcinoma of the Ovary, 72 hours
Method: as §1, §2, §3, §4, §5

CT26 = test: CellTiter-Glo cell viability assay; assay type: cell-based, Murine; settings: for pIC50: Mus musculus, CT26, MURINE COLON, Colon, 72 hours
Method: as §1, §2, §3, §4, §5

L1210 = test: CellTiter-Glo cell viability assay; assay type: cell-based, Murine; settings: for pIC50: Mus musculus, L1210, HEMATOPIETIC, Murine Leukemia, 72 hours
Method: as §1, §2, §3, §4, §5

MC38 = test: CellTiter-Glo cell viability assay; assay type: cell-based, Murine; settings: for pIC50: Mus musculus, MC-38, MC38, MURINE COLON, Colon, 72 hours
Method: as §1, §2, §3, §4, §5

4T1 = test: CellTiter-Glo cell viability assay; assay type: cell-based, Murine; settings: for pIC50: Mus musculus, 4T1, BREAST, Murine Breast Tumor, 72 hours
Method: as §1, §2, §3, §4, §5

GL261 = test: CellTiter-Glo cell viability assay; assay type: cell-based, Murine; settings: for pIC50: Mus musculus, GL261, MURINE BRAIN, Murine Glioma, 72 hours
Method: as §1, §2, §3, §4, §5

[1] = Pharmacokinetics studies in mice; assay type: in vivo; settings: for AUC(0-inf) / AUC(0-t) / Cmax / Tmax / half-life / bioavailability / Vd/F: mouse, in vivo; for Vd/F: read-out: Vz/Fobs
Description: Volume of distribution is one of the most important pharmacokinetic properties of a drug candidate and for an anticancer drug can result in increased drug distribution to the tumor.

HT-29 = test: CellTiter-Glo cell viability assay; assay type: cell-based; settings: for pIC50: Homo sapiens, HT-29, COLON, CRC, 72 hours
Method: as §1, §2, §3, §4, §5

MOLM-13 = test: CellTiter-Glo cell viability assay; assay type: cell-based; settings: for pIC50: Homo sapiens, MOLM-13, HEMATOPIETIC, AML, 72 hours
Method: as §1, §2, §3, §4, §5

A427 = test: CellTiter-Glo cell viability assay; assay type: cell-based; settings: for pIC50: Homo sapiens, A-427, A427, LUNG, Carcinoma, 72 hours
Method: as §1, §2, §3, §4, §5

MM1.S = test: CellTiter-Glo cell viability assay; assay type: cell-based; settings: for pIC50: Homo sapiens, MM1.S, HEMATOPIETIC, MM, 72 hours
Method: as §1, §2, §3, §4, §5

Huh-7-luc = test: CellTiter-Glo cell viability assay; assay type: cell-based; settings: for pIC50: Huh-7-luc, LIVER, HCC, 72 hours
Method: as §1, §2, §3, §4, §5

SK-Hep-1 = test: CellTiter-Glo cell viability assay; assay type: cell-based; settings: for pIC50: Homo sapiens, SK-HEP1, SK-Hep-1, LIVER, HCC, 72 hours
Method: as §1, §2, §3, §4, §5

[2] = IV-1 mg/kg, 5% Ethanol 5% Cremophor 90% Saline
[3] = PO-5 mg/kg, 10% Ethanol 90% Labrasol
[4] = SC-5 mg/kg, 5% Ethanol 5% Cremophor 90% Saline

## CC[C@H](C(=O)Nc1ncc(C(=O)NO)s1)c1ccc(OC)cc1 [#1a, (S)—N-hydroxy-2-(2-(4-methoxyphenyl)butanamido)thiazole-5-carboxamide]
OVCAR-3
  pIC50: 7.41
OVCAR-3; ratio of IC50, OVCAR-3
  #1/#1a: 1.67
  #1b/#1a: 6.26
OVCAR-8
  pIC50: 7.68
OVCAR-8; ratio of IC50, OVCAR-8
  #1/#1a: 1.71
  #1b/#1a: 5.38
COV434
  pIC50: 7.46
COV434; ratio of IC50, COV434
  #1b/#1a: 9.69
BIN-67
  pIC50: 7.29
BIN-67; ratio of IC50, BIN-67
  #1/#1a: 1.33
  #1b/#1a: 8.82
SKOV-3
  pIC50: 7.20
SKOV-3; ratio of IC50, SKOV-3
  #1/#1a: 1.79
  #1b/#1a: 8.08
IGROV-1
  pIC50: 7.27
IGROV-1; ratio of IC50, IGROV-1
  #1/#1a: 1.44
  #1b/#1a: 9.07
A2780cp
  pIC50: 7.21
A2780cp; ratio of IC50, A2780cp
  #1/#1a: 1.89
  #1b/#1a: 6.1
A2780
  pIC50: 7.49
A2780; ratio of IC50, A2780
  #1/#1a: 1.5
  #1b/#1a: 6.84
SCCOHT-1
  pIC50: 6.53
SCCOHT-1; ratio of IC50, SCCOHT-1
  #1/#1a: 1.16
  #1b/#1a: 0.63
CT26
  pIC50: 6.33
CT26; ratio of IC50, CT26
  #1/#1a: 2.83
  #1b/#1a: 6.91
L1210
  pIC50: 7.42
L1210; ratio of IC50, L1210
  #1/#1a: 1.55
  #1b/#1a: 8.53
MC38
  pIC50: 7.24
MC38; ratio of IC50, MC38
  #1/#1a: 2.21
  #1b/#1a: 8.5
4T1
  pIC50: 7.64
4T1; ratio of IC50, 4T1
  #1/#1a: 1.57
  #1b/#1a: 8.04
GL261
  pIC50: 6.88
GL261; ratio of IC50, GL261
  #1/#1a: 2.82
  #1b/#1a: 9.11
[1]; [2]
  AUC % Extrap: 0.20%
  CI/Fobs: 156 mL/min/kg
  AUC(0-inf): 107 ng·h/mL
  AUC(0-t): 106 ng·h/mL
  Cmax: 131 ng/mL
  Tmax: 15 min
  half-life: 55.8 min
[1]; PO-5 mg/kg
  AUC % Extrap: 1.93%
  CI/Fobs: 1122 mL/min/kg
  AUC(0-inf): 74.3 ng·h/mL
  AUC(0-t): 72.8 ng·h/mL
  Cmax: 28.7 ng/mL
  Tmax: 30 min
  bioavailability: 13.9%
  half-life: 332 min
  Vd/F: 537 L/kg
[1]; [3]
  AUC % Extrap: 1.93%
  CI/Fobs: 1122 mL/min/kg
[1]; [4]
  AUC % Extrap: 0.85%
  CI/Fobs: 240.3 mL/min/kg
  AUC(0-inf): 347 ng·h/mL
  AUC(0-t): 344 ng·h/mL
  Cmax: 252 ng/mL
  Tmax: 15 min
  bioavailability: 65.1%
  half-life: 73.2 min
  Vd/F: 25.3 L/kg
HT-29
  pIC50: 7.37
HT-29; ratio of IC50, HT-29
  #1/#1a: 3.16
  #1b/#1a: 9.53
MOLM-13
  pIC50: 7.55
MOLM-13; ratio of IC50, MOLM-13
  #1/#1a: 2.21
  #1b/#1a: 7.46
A427
  pIC50: 6.73
A427; ratio of IC50, A427
  #1/#1a: 1.66
  #1b/#1a: 7.77
MM1.S
  pIC50: 7.92
MM1.S; ratio of IC50, MM1.S
  #1/#1a: 2.75
  #1b/#1a: 5.92
Huh-7-luc
  pIC50: 7.17
Huh-7-luc; ratio of IC50, Huh-7-luc
  #1/#1a: 2.72
  #1b/#1a: 7.25
SK-Hep-1
  pIC50: 6.83
SK-Hep-1; ratio of IC50, SK-Hep-1
  #1/#1a: 2.51
  #1b/#1a: 6.71

## CC[C@@H](C(=O)Nc1ncc(C(=O)NO)s1)c1ccc(OC)cc1 [#1b, (R)—N-hydroxy-2-(2-(4-methoxyphenyl)butanamido)thiazole-5-carboxamide]
OVCAR-3
  pIC50: 6.61
OVCAR-8
  pIC50: 6.95
COV434
  pIC50: 6.47
BIN-67
  pIC50: 6.35
SKOV-3
  pIC50: 6.29
IGROV-1
  pIC50: 6.31
A2780cp
  pIC50: 6.42
A2780
  pIC50: 6.66
SCCOHT-1
  pIC50: 6.73
CT26
  pIC50: 5.49
L1210
  pIC50: 6.49
MC38
  pIC50: 6.31
4T1
  pIC50: 6.73
GL261
  pIC50: 5.92
[1]; PO-5 mg/kg
  AUC % Extrap: 1.02%
  CI/Fobs: 912 mL/min/kg
  AUC(0-inf): 91.4 ng·h/mL
  AUC(0-t): 90.4 ng·h/mL
  Cmax: 20.9 ng/mL
  Tmax: 60 min
  bioavailability: 16.2%
  half-life: 216 min
  Vd/F: 284 L/kg
HT-29
  pIC50: 6.39
MOLM-13
  pIC50: 6.68
A427
  pIC50: 5.84
MM1.S
  pIC50: 7.15
Huh-7-luc
  pIC50: 6.31
SK-Hep-1
  pIC50: 6.00

## CCC(C(=O)Nc1ncc(C(=O)NO)s1)c1ccc(OC)cc1 (racemic) [#1, N-hydroxy-2-(2-(4-methoxyphenyl)butanamido)thiazole-5-carboxamide]
OVCAR-3
  pIC50: 7.19
OVCAR-8
  pIC50: 7.44
COV434
  pIC50: 7.33
BIN-67
  pIC50: 7.17
SKOV-3
  pIC50: 6.95
IGROV-1
  pIC50: 7.11
A2780cp
  pIC50: 6.93
A2780
  pIC50: 7.32
SCCOHT-1
  pIC50: 6.47
CT26
  pIC50: 5.88
L1210
  pIC50: 7.23
MC38
  pIC50: 6.89
4T1
  pIC50: 7.44
GL261
  pIC50: 6.43
[1]; PO-5 mg/kg
  AUC % Extrap: 5.51%
  CI/Fobs: 483.2 mL/min/kg
  AUC(0-inf): 172 ng·h/mL
  AUC(0-t): 163 ng·h/mL
  Cmax: 30.8 ng/mL
  Tmax: 30 min
  bioavailability: 14.3%
  half-life: 326 min
  Vd/F: 228 L/kg
HT-29
  pIC50: 6.87
MOLM-13
  pIC50: 7.21
A427
  pIC50: 6.51
MM1.S
  pIC50: 7.48
Huh-7-luc
  pIC50: 6.73
SK-Hep-1
  pIC50: 6.43
